ChEMBL document CHEMBL1127660, “Isolation, structural determination, and biological activity of 6 alpha-hydroxytaxol, the principal human metabolite of taxol” (J Med Chem, 1994)

Tests used:
[1] = system: U-937; experiment: The compound was tested for inhibition concentration against U-937 cell line; assay type: functional, cell-based; settings: Homo sapiens
[2] = system: MOLT-4; experiment: The compound was tested for inhibition concentration against MOLT-4 cell line; assay type: functional, cell-based; settings: Homo sapiens

Structure (SMILES): CC(=O)O[C@H]1C(=O)[C@@]2(C)[C@H]([C@H](OC(=O)c3ccccc3)[C@]3(O)C[C@H](OC(=O)[C@H](O)[C@@H](NC(=O)c4ccccc4)c4ccccc4)C(C)=C1C3(C)C)[C@]1(OC(C)=O)CO[C@@H]1C[C@@H]2O [PACLITAXEL]
- IC50 [1]: 1 nM
- IC50 [2]: 1.6 nM
